{"source": "paper PMC12813973", "about": "“Consequences of Peptide Macrocyclization Revealed by Virus-Inspired β‑Hairpin Mimetics” (ACS Chemical Biology, 2025)", "assay_type_in_all_cases": "binding", "key": {"STAT3": {"target": "T1, STAT3 (Homo sapiens, UniProt P40763)", "T1 construct": "STAT3: the gene encoding full-length STAT3 was codon optimised for expression in; MBP (pEXP-MBP vector) (cleaved yes); His tag (IMAC capture, removed with the fusion by TEV and reverse IMAC) (cleaved yes); made in house; host or cells: E. coli T7 Express", "T1 sequence (P40763 whole entry, species assumed, the tested form may be a part)": "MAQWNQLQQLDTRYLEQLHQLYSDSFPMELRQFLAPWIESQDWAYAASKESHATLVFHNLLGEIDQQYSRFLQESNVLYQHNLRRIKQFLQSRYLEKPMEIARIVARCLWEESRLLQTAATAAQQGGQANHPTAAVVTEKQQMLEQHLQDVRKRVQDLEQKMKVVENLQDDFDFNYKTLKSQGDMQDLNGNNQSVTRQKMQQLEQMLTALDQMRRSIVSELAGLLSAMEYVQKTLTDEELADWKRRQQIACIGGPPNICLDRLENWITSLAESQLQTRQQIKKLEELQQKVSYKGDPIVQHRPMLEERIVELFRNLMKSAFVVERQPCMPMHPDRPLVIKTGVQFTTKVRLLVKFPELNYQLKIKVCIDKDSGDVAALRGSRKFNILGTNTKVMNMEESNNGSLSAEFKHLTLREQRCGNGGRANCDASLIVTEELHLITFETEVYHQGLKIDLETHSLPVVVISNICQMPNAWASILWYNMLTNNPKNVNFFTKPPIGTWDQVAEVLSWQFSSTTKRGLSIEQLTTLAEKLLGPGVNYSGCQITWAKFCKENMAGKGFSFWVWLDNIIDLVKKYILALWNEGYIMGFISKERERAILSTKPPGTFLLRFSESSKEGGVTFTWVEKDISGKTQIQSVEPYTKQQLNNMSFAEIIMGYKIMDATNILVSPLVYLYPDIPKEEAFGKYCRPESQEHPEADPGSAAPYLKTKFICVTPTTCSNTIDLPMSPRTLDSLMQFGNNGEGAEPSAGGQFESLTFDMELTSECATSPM", "experiment": "biochemical", "conditions": "for KD: analyte 10 µM (1, 3, 5) or 0.5 µM (4, 6), n.b. – no binding observed", "protocol": "In such PPIs, the bulk of the binding energy contribution typically stems from backbone interactions, whereas binding specificity is fine-tuned by side-chain contacts. […] We evaluated the binding kinetics of peptides to full-length STAT3 using GCI.\n(§1) Grating coupled interferometry (GCI)\n(§2) GCI experiments were performed on a Creoptix WaveDELTA instrument (Malvern Panalytical). Full-length STAT1 or STAT3 were immobilised on a 4PCH chip (Malvern Panalytical #4PCH-03) to a density 2000-8000 pg/mm2 using EDC/NHS activation followed by amine coupling. Briefly, proteins (500 nM) were applied onto an activated chip in 10 mM MES pH 6.5, 20 mM NaCl, after which the chip surface was passivated with 1M ethanolamine, pH 8.0.\n(§3) The kinetic measurements were perfor med using 20 mM HEPES pH 7.5, 300 mM NaCl, 0.01% Tween-20, 0.0005% DMSO as running buffer. Peptides were tested at 0.5 or 10 μM concentration using the waveRAPID kinetics experiment with the tight binder or intermediate binder mode, respectively.[4] Sensorgrams were fitted in the waveControl software (Malven Panalytical) using the 1:1 kinetic model. […]\nGCI sensorgrams depicting RAPID kinetics measurements and fitted kinetic models for peptide binding to full-length STAT3 immobilised on a polycarboxylate hydrogel chip (4PCH). Peptides were applied at 0.5 or 10 μM concentration using the medium or tight binders pulse sequence. The peptides that show negligible Rmax values at 10 μM analyte concentration were classified as non-binding.\n(1 picture or pasted object on this page, not shown here)"}, "STAT1 [1]": {"target": "T2, STAT1 (Homo sapiens, UniProt P42224)", "T2 construct": "full-length STAT1 (Uniprot #P42224-1) was expressed in E. coli; His tag (pEXP-NHis vector) (N); made in house; host or cells: E. coli T7 Express", "T2 sequence (P42224 1-750)": "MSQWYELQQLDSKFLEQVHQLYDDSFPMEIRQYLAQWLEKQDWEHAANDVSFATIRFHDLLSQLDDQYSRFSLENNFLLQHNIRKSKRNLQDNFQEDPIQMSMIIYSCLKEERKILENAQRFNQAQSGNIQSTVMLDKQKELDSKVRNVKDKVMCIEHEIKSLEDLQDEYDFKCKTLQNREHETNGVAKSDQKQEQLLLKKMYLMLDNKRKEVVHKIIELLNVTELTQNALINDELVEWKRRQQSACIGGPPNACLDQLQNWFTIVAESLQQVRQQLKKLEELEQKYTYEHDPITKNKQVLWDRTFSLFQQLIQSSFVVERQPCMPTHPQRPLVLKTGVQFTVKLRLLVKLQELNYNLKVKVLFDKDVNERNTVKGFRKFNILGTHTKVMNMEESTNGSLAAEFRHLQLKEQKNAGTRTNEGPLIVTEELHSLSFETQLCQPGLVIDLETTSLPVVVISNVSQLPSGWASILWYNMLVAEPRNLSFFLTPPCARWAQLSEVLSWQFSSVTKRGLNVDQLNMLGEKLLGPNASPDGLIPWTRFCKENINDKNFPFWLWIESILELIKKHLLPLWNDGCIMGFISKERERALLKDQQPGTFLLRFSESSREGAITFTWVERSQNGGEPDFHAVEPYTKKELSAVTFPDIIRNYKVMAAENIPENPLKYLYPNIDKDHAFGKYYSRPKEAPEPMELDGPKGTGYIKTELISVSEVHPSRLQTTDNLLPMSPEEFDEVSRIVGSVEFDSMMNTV", "experiment": "Fluorescence polarization competition assay with fluorescein-labelled pIFNGR1 docking site peptide probe", "conditions": "10 nM fluorescein pIFNGR1 probe, STAT1 1.5 μM, 20 mM Tris pH 8.0, 300 mM NaCl, 0.1% Tween-20, 0.5 mM TCEP, 2.5% DMSO, room temperature; four parameter logistic fit; read-out: IC50 (FP competition, pIFNGR1 probe displacement)"}, "STAT1 [2]": {"target": "T2, STAT1", "experiment": "Grating-coupled interferometry (GCI) waveRAPID kinetics, immobilised full-length STAT1", "conditions": "for kd / kon at 0.5 µM: analyte 0.5 µM; for kon at 0.5 µM: read-out: ka", "text": "Understanding the molecular determinants of kinetic rate constants of binding (k a, k d) can aid the design of pharmacological probes with longer target engagement, which is beneficial for drug efficacy and decreased toxicity. , We characterized the binding kinetics of 018-derived macrocycles by using grating-coupled interferometry (GCI). We used waveRAPID, a regeneration-free kinetic binding assay that applies sequential analyte pulses of increasing duration onto a GCI biosensor surface with an immobilized target (Figures A, and S3,S4, Table S2).\nas §1, §2, §3"}, "[3]": {"conditions": "replicate 1 (first listed run, Table S2)"}, "[4]": {"conditions": "replicate 2 (second listed run, Table S2)"}, "[5]": {"conditions": "replicate 3 (third listed run, Table S2)"}}, "note": "Read-outs that look alike come from different tables or passages of the source.", "data": [{"smiles": "CC[C@H](C)[C@H](NC(=O)[C@H](Cc1ccccc1)NC(=O)[C@@H](NC(=O)[C@H](CO)NC(=O)[C@H](Cc1c[nH]c2ccccc12)NC(=O)[C@H](CCSC)NC(C)=O)C(C)C)C(=O)N[C@@H](Cc1c[nH]cn1)C(=O)NCC(=O)N[C@@H](Cc1c[nH]cn1)C(=O)N[C@@H](CC(=O)O)C(=O)NCC(=O)N[C@@H](CO)C(=O)N[C@@H](CC(N)=O)C(=O)N[C@@H](CCCCN)C(=O)NCC(=O)N[C@@H](CO)C(=O)N[C@@H](CCCCN)C(=O)N[C@H](C(=O)N[C@@H](Cc1ccc(O)cc1)C(=O)N[C@H](C(N)=O)[C@@H](C)O)[C@@H](C)O", "note": "[Peptide 1]", "values": [{"measurement": "KD", "setting": "STAT3; [3]", "value": "n.b."}, {"measurement": "KD", "setting": "STAT3; [4]", "value": "n.b."}, {"measurement": "STAT3 binding (GCI), in words", "setting": "STAT3; full-length STAT3, negligible Rmax at 10 μM classified as non-binding", "value": "not detected"}, {"measurement": "IC50", "setting": "STAT1 [1]", "value": 4300, "unit": "nM"}, {"measurement": "Kd", "setting": "STAT1 [2]; 20 mM HEPES pH 7.5, 300 mM NaCl, 0.01% Tween-20, 1:1 kinetic model, average of 2–4 technical replicates ± SD, SD", "value": "85.8 ± 6.4", "unit": "nM"}, {"measurement": "residence time", "setting": "STAT1 [2]; STAT1, GCI, read-out: target residence time τ (τ = 1/kd) (converted)", "value": 0.8, "unit": "min"}, {"measurement": "kd", "setting": "STAT1 [2]; [3]", "value": 0.0221, "unit": "s⁻¹"}, {"measurement": "kon at 0.5 µM", "setting": "STAT1 [2]; [3]", "value": 241000, "unit": "M⁻¹ s⁻¹"}, {"measurement": "kd", "setting": "STAT1 [2]; [4]", "value": 0.0172, "unit": "s⁻¹"}, {"measurement": "kon at 0.5 µM", "setting": "STAT1 [2]; [4]", "value": 217000, "unit": "M⁻¹ s⁻¹"}, {"measurement": "kd", "setting": "STAT1 [2]; [5]", "value": 0.0226, "unit": "s⁻¹"}, {"measurement": "kon at 0.5 µM", "setting": "STAT1 [2]; [5]", "value": 262000, "unit": "M⁻¹ s⁻¹"}]}]}
